Source: patent US20250304594A1, “METHYL (R)-2-(FLUOROMETHYL)-5-OXO-4-PHENYL-4,5,6,7-TETRAHYDRO-1H-CYCLOPENTA[B]PYRIDINE-3-CARBOXYLATE AND METHYL (R)-2-(FLUOROMETHYL)-5-OXO-4-PHENYL-1,4,5,7-TETRAHYDROFURO[3,4-B]PYRIDINE-3-CARBOXYLATE AS Cav1,2 ACTIVATORS” (Novartis AG, priority 2020, published 2025)

Molecular target: T1, human CaV1.2 (Homo sapiens, UniProt Q13936)
T1 construct: expressed in transfected cells; host or cells: Flp-In 293 T-Rex (HEK293), monoclonal CaV1.2-HEK293(AUX) clone 2-19B; doxycycline-induced auxiliary subunits
T1 sequence (Q13936 1-2138 isoform Q13936-23): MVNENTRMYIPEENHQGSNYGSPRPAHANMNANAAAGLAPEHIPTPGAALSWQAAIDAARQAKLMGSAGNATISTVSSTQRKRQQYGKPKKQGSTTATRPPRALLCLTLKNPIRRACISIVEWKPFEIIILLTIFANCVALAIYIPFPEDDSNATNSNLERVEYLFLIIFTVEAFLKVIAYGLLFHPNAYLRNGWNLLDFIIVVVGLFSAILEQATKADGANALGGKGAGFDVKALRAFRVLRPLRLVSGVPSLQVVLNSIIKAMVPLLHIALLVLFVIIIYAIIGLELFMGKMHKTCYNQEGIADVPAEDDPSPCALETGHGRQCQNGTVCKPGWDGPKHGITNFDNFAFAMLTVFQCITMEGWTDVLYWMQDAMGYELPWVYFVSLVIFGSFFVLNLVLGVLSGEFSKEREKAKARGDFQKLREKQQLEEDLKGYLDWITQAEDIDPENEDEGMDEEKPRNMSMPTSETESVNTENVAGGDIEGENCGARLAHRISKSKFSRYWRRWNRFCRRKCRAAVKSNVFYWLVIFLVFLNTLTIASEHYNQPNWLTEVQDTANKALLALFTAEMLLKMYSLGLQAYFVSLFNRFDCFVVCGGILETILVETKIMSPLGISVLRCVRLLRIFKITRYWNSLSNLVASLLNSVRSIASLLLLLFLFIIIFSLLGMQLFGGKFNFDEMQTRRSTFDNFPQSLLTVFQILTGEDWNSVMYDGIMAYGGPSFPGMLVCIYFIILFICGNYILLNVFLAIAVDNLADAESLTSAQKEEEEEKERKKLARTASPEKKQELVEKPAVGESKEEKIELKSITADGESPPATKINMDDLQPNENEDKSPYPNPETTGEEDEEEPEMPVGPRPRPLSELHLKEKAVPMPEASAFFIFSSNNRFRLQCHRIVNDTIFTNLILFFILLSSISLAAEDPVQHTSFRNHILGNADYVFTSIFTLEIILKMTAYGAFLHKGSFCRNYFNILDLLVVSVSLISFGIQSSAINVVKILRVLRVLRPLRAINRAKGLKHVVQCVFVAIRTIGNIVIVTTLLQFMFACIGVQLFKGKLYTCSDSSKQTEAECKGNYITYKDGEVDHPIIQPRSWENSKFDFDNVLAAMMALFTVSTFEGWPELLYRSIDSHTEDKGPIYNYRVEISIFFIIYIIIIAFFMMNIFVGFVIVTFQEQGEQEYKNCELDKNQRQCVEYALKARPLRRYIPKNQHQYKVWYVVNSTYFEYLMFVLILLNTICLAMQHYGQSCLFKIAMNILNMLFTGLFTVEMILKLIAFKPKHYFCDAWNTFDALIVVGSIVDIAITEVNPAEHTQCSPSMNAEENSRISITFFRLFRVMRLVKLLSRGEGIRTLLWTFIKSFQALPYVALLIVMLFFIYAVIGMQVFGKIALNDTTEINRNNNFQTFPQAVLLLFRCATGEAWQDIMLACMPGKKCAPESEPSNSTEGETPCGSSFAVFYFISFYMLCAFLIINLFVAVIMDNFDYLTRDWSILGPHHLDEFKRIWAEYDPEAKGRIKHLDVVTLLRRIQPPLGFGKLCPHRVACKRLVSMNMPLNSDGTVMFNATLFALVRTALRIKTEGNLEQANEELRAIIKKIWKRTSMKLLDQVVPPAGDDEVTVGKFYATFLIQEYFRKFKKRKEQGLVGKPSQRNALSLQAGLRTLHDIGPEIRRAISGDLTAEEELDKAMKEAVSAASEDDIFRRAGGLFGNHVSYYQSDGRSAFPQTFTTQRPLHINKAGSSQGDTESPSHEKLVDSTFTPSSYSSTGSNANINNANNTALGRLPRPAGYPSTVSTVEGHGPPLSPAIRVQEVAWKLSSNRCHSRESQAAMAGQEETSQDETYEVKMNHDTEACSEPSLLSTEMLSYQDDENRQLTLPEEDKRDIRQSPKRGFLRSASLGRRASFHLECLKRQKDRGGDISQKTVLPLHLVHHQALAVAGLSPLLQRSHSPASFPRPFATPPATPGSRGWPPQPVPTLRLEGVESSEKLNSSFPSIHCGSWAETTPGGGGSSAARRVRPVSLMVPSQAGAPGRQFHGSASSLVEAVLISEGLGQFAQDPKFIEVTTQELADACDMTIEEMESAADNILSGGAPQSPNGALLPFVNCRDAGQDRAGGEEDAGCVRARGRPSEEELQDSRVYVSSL
T1 sequence (Q9NY47 19-1001 partner limits assumed): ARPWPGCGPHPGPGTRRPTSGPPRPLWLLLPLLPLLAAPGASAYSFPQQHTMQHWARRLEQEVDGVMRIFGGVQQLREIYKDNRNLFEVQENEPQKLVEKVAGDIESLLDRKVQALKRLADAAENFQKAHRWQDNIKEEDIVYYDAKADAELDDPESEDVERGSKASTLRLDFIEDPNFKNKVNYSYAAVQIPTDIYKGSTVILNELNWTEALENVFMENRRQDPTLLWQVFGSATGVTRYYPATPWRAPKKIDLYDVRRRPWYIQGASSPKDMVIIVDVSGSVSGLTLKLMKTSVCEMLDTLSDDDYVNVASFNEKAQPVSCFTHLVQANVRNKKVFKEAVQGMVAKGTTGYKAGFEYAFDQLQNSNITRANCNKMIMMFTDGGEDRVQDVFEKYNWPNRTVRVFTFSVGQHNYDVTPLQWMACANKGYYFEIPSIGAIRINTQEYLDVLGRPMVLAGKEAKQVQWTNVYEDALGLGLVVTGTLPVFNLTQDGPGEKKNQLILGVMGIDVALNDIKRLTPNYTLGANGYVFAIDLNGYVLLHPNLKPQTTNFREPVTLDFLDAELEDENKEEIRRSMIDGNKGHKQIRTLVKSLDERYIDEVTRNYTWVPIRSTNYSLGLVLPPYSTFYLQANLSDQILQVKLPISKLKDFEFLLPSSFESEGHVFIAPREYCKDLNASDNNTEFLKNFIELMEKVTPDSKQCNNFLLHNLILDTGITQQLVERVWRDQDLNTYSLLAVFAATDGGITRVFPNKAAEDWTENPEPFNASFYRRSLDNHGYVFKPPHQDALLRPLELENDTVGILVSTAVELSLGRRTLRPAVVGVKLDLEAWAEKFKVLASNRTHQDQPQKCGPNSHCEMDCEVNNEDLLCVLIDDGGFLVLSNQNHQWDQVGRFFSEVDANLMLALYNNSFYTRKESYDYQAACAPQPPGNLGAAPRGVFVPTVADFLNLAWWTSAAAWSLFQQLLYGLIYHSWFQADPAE
T1 sequence (Q9NY47 1002-1150 partner limits assumed): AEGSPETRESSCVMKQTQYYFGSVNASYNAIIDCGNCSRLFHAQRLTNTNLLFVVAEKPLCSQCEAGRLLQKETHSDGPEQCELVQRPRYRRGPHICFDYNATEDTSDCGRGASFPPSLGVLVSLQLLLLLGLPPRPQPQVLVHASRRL
T1 sequence (Q08289 whole entry partner): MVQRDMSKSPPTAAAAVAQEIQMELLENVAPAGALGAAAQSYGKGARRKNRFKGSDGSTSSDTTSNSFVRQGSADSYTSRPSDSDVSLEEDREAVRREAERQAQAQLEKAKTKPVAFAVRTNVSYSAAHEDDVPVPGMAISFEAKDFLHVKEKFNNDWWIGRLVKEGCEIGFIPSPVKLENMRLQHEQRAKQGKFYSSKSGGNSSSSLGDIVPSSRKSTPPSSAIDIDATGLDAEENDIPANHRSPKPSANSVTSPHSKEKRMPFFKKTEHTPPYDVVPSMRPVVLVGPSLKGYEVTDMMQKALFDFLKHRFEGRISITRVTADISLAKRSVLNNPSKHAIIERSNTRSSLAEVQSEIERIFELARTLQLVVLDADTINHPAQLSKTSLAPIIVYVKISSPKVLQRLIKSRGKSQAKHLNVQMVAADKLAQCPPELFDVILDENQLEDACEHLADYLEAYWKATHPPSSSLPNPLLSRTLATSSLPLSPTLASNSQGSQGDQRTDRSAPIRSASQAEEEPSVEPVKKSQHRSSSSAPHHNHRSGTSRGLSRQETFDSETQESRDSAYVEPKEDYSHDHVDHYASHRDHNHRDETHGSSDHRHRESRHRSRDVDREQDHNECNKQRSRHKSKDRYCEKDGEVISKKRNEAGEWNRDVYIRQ
Test: QPatch channel biophysics assay (channel gating, V1/2 of activation, inactivation) in CaV1.2-HEK293(AUX) cells
Format: cell-based
Details: Table 9; shift of half-way channel activation voltage V1/2
Text: The monoclonal CaV1.2-HEK293(AUX) cell line constitutively expresses human CaV1.2 alpha1C (α1C) subunit (CACNA1C) and has doxycycline-inducible expression of the alpha2delta (α2Δ2) auxiliary subunit (CACNA2D2) and beta2 (02) auxiliary subunit (CACNB2). To generate the cell line, expression vectors pcDNA5.0/FRT-TO-CACNA2D2-FCS-P2A-CACNB2 and pCMV6-entry-CACNA1C were established via gene synthesis and cloning. Here, pcDNA5.0/FRT-TO plasmid is from Invitrogen, pCMV6-entry is from Origene, FCS stands for Furin Cleavage Site, P2A is a peptide self-cleavage sequence derived from porcine teschovirus-1, and FRT is the Flippase recognition target site. Next, parental line Flp-In™ 293 T-Rex (Invitrogen) was transfected with pcDNA5.0/FRT-TO-CACNA2D2-FCS-P2A-CACNB2 and Flippase vector pOG44 (Invitrogen) to establish targeted integration of the CACNA2D2-FCS-P2A-CACNB2 expression cassette into the pre-engineered FRT site in Flp-In™ 293 T-Rex. This intermediate cell line was then transfected with pCMV6-entry-CACNA1C to establish stable CACNA1C expression. Clonal isolation was achieved under Neomycin selection. A cell clone (2-19B) with good voltage-dependent Barium current (see electrophysiology methods below) was selected for characterization of CaV1.2 activators.
24 hours prior an electrophysiology experiment, doxycycline (1 μg/ml) was added to the growth medium (Table 6), and 25 μM of verapamil was co-applied to prevent calcium influx triggered cell death. Cell confluency should reach 70%-80% right before the experiment. To harvest cells (from a T175 cm^2 flask as an example), growth media were removed completely, and the cells were rinsed with 10 mL of D-PBS. D-PBS was aspirated, and 10 mL of Detachin (Genlantis) was added and the plate was placed in a 37° C. incubator for 10 minutes. Detached cells were placed into a 15 mL conical tube and spun at 1000 rpm for 2 minutes. Supernatant was removed, and cells were re-suspended in QPatch complete media (Table 7) to desired cell density of 1.5-3 million cells per QPatch run. Each experimental run uses 1.5 mL of cells.
The cells suspension was taken to the Sophion QPatch platform that uses whole-cell voltage clamp to measure barium currents conducted through CaV1.2 on single-hole QPlates. Extracellular and intracellular patch clamp solutions are described in Tables 7 and 8, respectively. A dose-response assay protocol was used to determine the maximal fold change of peak inward current (Emax) and potency (EC50) of each compound. The protocol had eight liquid periods. The first liquid period was to stabilize current amplitude, which was monitored using repetitive 200-ms voltage pulses stepping from −80 mV to 0 mV. The second liquid period was to determine baseline current amplitude in the presence of vehicle control, using a single 20-ms voltage pulse stepping from −80 mV to 0 mV. The third through eighth liquid periods were used to ascertain a 6-dose response to compound treatments, also using single 20-ms voltage pulses stepping from −80 mV to 0 mV. The EC50 was generated using the following equation Iconcentration=Ibase+(Ifull−Ibase)*c^n/(XC50^n+c^n), where c is the concentration and n is the Hill coefficient constant. Ifull is the maximal current achievable, and Ibase is 0. A channel biophysics assay protocol was used to determine channel gating properties including current-voltage relationship (IV curves), half-way channel activation voltage (V1/2), rate of channel inactivation (tau), and amplitude of tail current. Among these, V1/2 was derived from fitting equation G(V)=Gvmin+(Gvmax−Gvmin)/(1+exp(−(V−V½)/Vslope)), where G stands for conductance, Gvmin equals 0, Gvmax is the maximal conductance, and Vslope is a slope factor. G(V) was pre-calculated from equation G(V)=I(V)/(V−0.06), for each experimentally applied depolarization potential (V) and the corresponding current amplitude (I(V)), and 0.06 in the equation was the experimentally determined reversal potential in volts. […]

| Compound | Biophysics voltage shift (mV) |
| --- | --- |
| COC(=O)C1=C(CF)NC2=C(C(=O)OC2)[C@H]1c1cccc(F)c1[C@@H](C)F (single isomer, unassigned) [Example 8] | −5.4 |
| COC(=O)C1=C(CF)NC2=C(C(=O)OC2)[C@H]1c1cccc(F)c1C(F)(F)F (single isomer, unassigned) [Example 17] | −6.8 |
| COC(=O)C1=C(CF)NC2=C(C(=O)OC2)[C@H]1c1cccc(F)c1[C@H](F)CF (single isomer, unassigned) [Example 6] | −6.3 |
| COC(=O)C1=C(CF)NC2=C(C(=O)OC2)[C@H]1c1cccc(F)c1CC(F)F (single isomer, unassigned) [Example 11] | −5.0 |
| COC(=O)C1=C(CF)NC2=C(C(=O)OC2)[C@H]1c1cc(F)cc(F)c1[C@H](C)F (single isomer, unassigned) [Example 5, methyl (R)-4-(3,5-difluoro-2-((R or S)-1-fluoroethyl)phenyl)-2-(fluoromethyl)-5-oxo-1,4,5,7-tetrahydrofuro[3,4-b]pyridine-3-carboxylate] | −4.6 |
| COC(=O)C1=C(CF)NC2=C(C(=O)OC2)[C@H]1c1cc(F)cc(F)c1C(F)(F)F (single isomer, unassigned) [Example 10] | −2.3 |
| COC(=O)C1=C(CF)NC2=C(C(=O)OC2)[C@H]1c1cc(F)cc(F)c1[C@H](F)CF (single isomer, unassigned) [Example 16, methyl (R)-4-(2-((R or S)-1,2-difluoroethyl)-3,5-difluorophenyl)-2-(fluoromethyl)-5-oxo-1,4,5,7-tetrahydrofuro[3,4-b]pyridine-3-carboxylate] | −5.8 |
| COC(=O)C1=C(CF)NC2=C(C(=O)OC2)[C@H]1c1cc(F)cc(F)c1[C@H]1CC1(F)F (single isomer, unassigned) [Example 4, Methyl (R)-4-(2-((R or S)-2,2-difluorocyclopropyl)-3,5-difluorophenyl)-2-(fluoromethyl)-5-oxo-1,4,5,7-tetrahydrofuro[3,4-b]pyridine-3-carboxylate] | −4.4 |
| COC(=O)C1=C(CF)NC2=C(C(=O)OC2)[C@H]1c1cc(F)ccc1C(F)(F)F (single isomer, unassigned) [Example 23] | −6.2 |
| COC(=O)C1=C(CF)NC2=C(C(=O)OC2)[C@H]1c1cc(F)cc(F)c1[C@H]1CC1(F)F (single isomer, unassigned) [Example 3, Methyl (R)-4-(2-((R or S)-2,2-difluorocyclopropyl)-3,5-difluorophenyl)-2-(fluoromethyl)-5-oxo-1,4,5,7-tetrahydrofuro[3,4-b]pyridine-3-carboxylate] | 0.1 |
| COC(=O)C1=C(CF)NC2=C(C(=O)OC2)[C@H]1c1cccc(F)c1C1CC1 (single isomer, unassigned) [Example 2] | −4.5 |
| COC(=O)C1=C(CF)NC2=C(C(=O)OC2)[C@H]1c1cccc(F)c1[C@H]1CC1(F)F (single isomer, unassigned) [Example 1, methyl (R)-4-(2-((R or S)-2,2-difluorocyclopropyl)-3-fluorophenyl)-2-(fluoromethyl)-5-oxo-1,4,5,7-tetrahydrofuro[3,4-b]pyridine-3-carboxylate] | −5.9 |
| COC(=O)C1=C(CF)NC2=C(C(=O)CC2)[C@H]1c1cccc(F)c1C1CC1 (single isomer, unassigned) [Example 28] | −7.2 |
| COC(=O)C1=C(CF)NC2=C(C(=O)OC2)[C@H]1c1cc(F)cc(F)c1C1CC1 (single isomer, unassigned) [Example 13] | −0.7 |
| COC(=O)C1=C(CF)NC2=C(C(=O)OC2)[C@H]1c1ccccc1OC(F)F (single isomer, unassigned) [Example 9] | −4.5 |
| COC(=O)C1=C(CF)NC2=C(C(=O)CC2)[C@H]1c1cccc(F)c1[C@@H](F)CF (single isomer, unassigned) [Example 7, methyl (R)-4-(2-((R or S)-1,2-difluoroethyl)-3-fluorophenyl)-2-(fluoromethyl)-5-oxo-4,5,6,7-tetrahydro-1H-cyclopenta[b]pyridine-3-carboxylate] | −6.3 |
| COC(=O)C1=C(CF)NC2=C(C(=O)OC2)[C@H]1c1cccc(F)c1C(F)F (single isomer, unassigned) [Example 15] | −5.7 |
| COC(=O)C1=C(CF)NC2=C(C(=O)OC2)[C@H]1c1cc(F)cc(F)c1C(F)F (single isomer, unassigned) [Example 18] | −5.2 |
